33 molecules from patent publication US8198307B2, “Imidazole derivatives having aryl piperidine substituent, method for preparation thereof and pharmaceutical compositions containing same” (Korea Research Institute of Chemical Technology, priority 2007, dated 2012) can be followed below.

SMILES strings stand for the structures. Where two headings read alike, the source gives them in different places.

The target in the experiment is T1, MCH R1 (melanine-concentrating hormone receptor-1) (Homo sapiens, UniProt Q99705).
T1 construct: purchased Euroscreen, Gosselies, Belgium
T1 sequence (Q99705 whole entry, species assumed): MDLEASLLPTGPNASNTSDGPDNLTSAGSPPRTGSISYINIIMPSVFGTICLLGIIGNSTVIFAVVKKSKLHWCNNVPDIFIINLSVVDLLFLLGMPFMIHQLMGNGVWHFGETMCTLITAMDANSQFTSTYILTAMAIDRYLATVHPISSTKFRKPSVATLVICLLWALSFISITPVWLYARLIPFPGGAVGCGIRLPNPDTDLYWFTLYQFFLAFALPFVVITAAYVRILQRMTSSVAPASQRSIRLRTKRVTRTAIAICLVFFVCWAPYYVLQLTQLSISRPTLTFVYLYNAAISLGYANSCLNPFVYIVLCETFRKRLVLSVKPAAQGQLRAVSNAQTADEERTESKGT
Nature of the experiment: Inhibitory effects on MCH R1 binding (Eu-MCH time-resolved fluorescence binding assay). The essentials:
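Receptor membranes were incubated 90 min at room temperature with 2 nM Eu-MCH and test compound (1 nM–10 μM final) in 25 mM HEPES pH 7.4, 5 mM MgCl2, 1 mM CaCl2, 0.5% BSA, then filter-washed. Nonspecific binding was defined with 0.5 μM MCH. Time-resolved fluorescence (ex 340/em 615 nm) gave percent inhibition of specific binding.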

Where [1] appears, read: concentration inhibiting the binding of MCH (Eu-MCH, 2 nM) to MCH R1 by 50% in vitro, TRF readout, test range 1 nM to 10 μM, read-out: IC50.

`CC(=O)Nc1cccc(C2CCN(CCCn3c(-c4ccc(F)cc4)nc4cc(Cl)ccc43)CC2)c1` [Example 84, 2-(4-fluorophenyl)-1-{3-[4-(3-acetylaminophenyl)piperidin-1-yl]propyl}-5-chloro-1H-benzimidazole]: the half-inhibitory concentration (IC50) under setting [1] is 50 nM.

Take `CC(=O)Nc1cccc(C2CCN(CCCn3c(-c4ccc(Cl)cc4)nc4cc([N+](=O)[O-])ccc43)CC2)c1` [Example 85, 2-(4-chlorophenyl)-1-{3-[4-(3-acetylaminophenyl)piperidin-1-yl]propyl}-5-nitro-1H-benzimidazole]: the IC50 is 70 nM.

Consider `COc1cc(Cl)ccc1-c1nc2cc(C)c(C)cc2n1CCCN1CCC(c2cccc(NC(C)=O)c2)CC1` [Example 86, 2-(4-chloro-2-methoxyphenyl)-1-{3-[4-(3-acetylaminophenyl)piperidin-1-yl]propyl}-5,6-dimethyl-1H-benzimidazole], for which the IC50 under setting [1] is 110 nM.

As to `COc1ccc(Cl)cc1-c1nc2cc(C)c(C)cc2n1CCCN1CCC(c2cccc(NC(C)=O)c2)CC1` [Example 87, 2-(5-chloro-2-methoxyphenyl)-1-{3-[4-(3-acetylaminophenyl)piperidin-1-yl]propyl}-5,6-dimethyl-1H-benzimidazole], under setting [1], the IC50 came out at 70 nM.

`CC(=O)Nc1cccc(C2CCN(CCCn3c(C)nc4ccccc43)CC2)c1` [Example 88, 2-methyl-1-{3-[4-(3-acetylaminophenyl)piperidin-1-yl]propyl}-1H-benzimidazole]: the IC50 under setting [1] is more than 10000 nM.

On to `CC(=O)Nc1cccc(C2CCN(CCCn3c(C)nc4cc(C)c(C)cc43)CC2)c1` [Example 89, 2-methyl-1-{3-[4-(3-acetylaminophenyl)piperidin-1-yl]propyl}-5,6-dimethyl-1H-benzimidazole], for which the IC50 under setting [1] was found to be 60 nM.

Take `Cc1nc2ccccc2n1CCCN1CCC(c2cccc(NC(=O)C(C)C)c2)CC1` [Example 90, 2-methyl-1-{3-[4-(3-isobutyrylaminophenyl)piperidin-1-yl]propyl}-1H-benzimidazole]: under setting [1], the IC50 turned out to be 80 nM.

Turning to `CC(=O)Nc1cccc(C2CCN(CCCn3c(C)nc4ccc(C)nc43)CC2)c1` [Example 91, 2,5-dimethyl-3-{3-[4-(3-acetylaminophenyl)piperidin-1-yl]propyl}-3H-imidazo[4,5-b]pyridine], under setting [1], the IC50 turned out to be 2800 nM.

On to `CC(=O)Nc1cccc(C2CCN(CCCn3c(C)nc4cc(Br)c(C)nc43)CC2)c1` [Example 92, 6-bromo-2,5-dimethyl-3-{3-[4-(3-acetylaminophenyl)piperidin-1-yl]propyl}-3H-imidazo[4,5-b]pyridine], for which the IC50 under setting [1] was found to be 188 nM.

Consider `CCc1nc2cc(Br)c(C)nc2n1CCCN1CCC(c2cccc(NC(C)=O)c2)CC1` [Example 93, 6-bromo-2-ethyl-5-methyl-3-{3-[4-(3-acetylaminophenyl)piperidin-1-yl]propyl}-3H-imidazo[4,5-b]pyridine], for which the IC50 under setting [1] was 98 nM.

Consider `CCCCc1nc2cc(Br)c(C)nc2n1CCCN1CCC(c2cccc(NC(C)=O)c2)CC1` [Example 94, 6-bromo-2-butyl-5-methyl-3-{3-[4-(3-acetylaminophenyl)piperidin-1-yl]propyl}-3H-imidazo[4,5-b]pyridine], for which, under setting [1], the IC50 was found to be 3 nM.

For `CCCCc1nc2c(C)cc(C)nc2n1CCCN1CCC(c2cccc(NC(C)=O)c2)CC1` [Example 95, 2-butyl-5,7-dimethyl-3-{3-[4-(3-acetylaminophenyl)piperidin-1-yl]propyl}-3H-imidazo[4,5-b]pyridine], the IC50 under setting [1] was found to be 90 nM.

For `CCCCc1nc2c(C)c(-c3ccccc3)c(C)nc2n1CCCN1CCC(c2cccc(NC(C)=O)c2)CC1` [Example 96, 2-butyl-5,7-dimethyl-6-phenyl-3-{3-[4-(3-acetylaminophenyl)piperidin-1-yl]propyl}-3H-imidazo[4,5-b]pyridine], under setting [1], the IC50 is 60 nM.

For `CCCCc1nc2cc(-c3ccccn3)c(C)nc2n1CCCN1CCC(c2cccc(NC(C)=O)c2)CC1` [Example 97, 2-butyl-5-methyl-6-pyridin-2-yl-3-{3-[4-(3-acetylaminophenyl)piperidin-1-yl]propyl}-3H-imidazo[4,5-b]pyridine], under setting [1], the IC50 is 70 nM.

`CCCCc1nc2cc(Br)c(C)nc2n1CCCN1CCC(c2cccc(NC(=O)C(C)C)c2)CC1` [Example 98, 6-bromo-2-butyl-5-methyl-3-{3-[4-(3-isobutyrylaminophenyl)piperidin-1-yl]propyl}-3H-imidazo[4,5-b]pyridine]: the IC50 under setting [1] was found to be 1 nM.

Turning to `CCCCc1nc2c(C)cc(C)nc2n1CCCN1CCC(c2cccc(NC(=O)C(C)C)c2)CC1` [Example 99, 2-butyl-5,7-dimethyl-3-{3-[4-(3-isobutyrylaminophenyl)piperidin-1-yl]propyl}-3H-imidazo[4,5-b]pyridine], the IC50 under setting [1] was 40 nM.

`CCCCc1nc2c(C)c(-c3ccccc3)c(C)nc2n1CCCN1CCC(c2cccc(NC(=O)C(C)C)c2)CC1` [Example 100, 2-butyl-5,7-dimethyl-6-phenyl-3-{3-[4-(3-isobutyrylaminophenyl)piperidin-1-yl]propyl}-3H-imidazo[4,5-b]pyridine]: the IC50 under setting [1] was found to be 320 nM.

For the molecule `CCCCc1nc2cc(-c3ccccn3)c(C)nc2n1CCCN1CCC(c2cccc(NC(=O)C(C)C)c2)CC1` [Example 101, 2-butyl-5-methyl-6-pyridin-2-yl-3-{3-[4-(3-isobutyrylaminophenyl)piperidin-1-yl]propyl}-3H-imidazo[4,5-b]pyridine], the IC50 under setting [1] turned out to be 40 nM.

Consider `CCCCc1nc2cc(-c3ccccc3)c(C=O)nc2n1CCCN1CCC(c2cccc(NC(=O)C(C)C)c2)CC1` [Example 102, 2-butyl-5-formyl-6-phenyl-3-{3-[4-(3-isobutyrylaminophenyl)piperidin-1-yl]propyl}-3H-imidazo[4,5-b]pyridine], for which the IC50 under setting [1] was found to be 260 nM.

On to `CCCCc1nc2cc(-c3ccc([N+](=O)[O-])cc3)c(C)nc2n1CCCN1CCC(c2cccc(NC(=O)C(C)C)c2)CC1` [Example 103, 2-butyl-5-methyl-6-(4-nitrophenyl)-3-{3-[4-(3-isobutyrylaminophenyl)piperidin-1-yl]propyl}-3H-imidazo[4,5-b]pyridine], for which the IC50 under setting [1] was found to be 20 nM.

Regarding `CC(=O)Nc1cccc(C2CCN(CCCn3c(-c4ccccn4)nc4ccccc43)CC2)c1` [Example 104, 2-(pyridin-2-yl)-1-{3-[4-(3-acetamidophenyl)piperidin-1-yl]propyl}-1H-benzimidazole], under setting [1], the half-maximal inhibitory concentration (IC50) was determined as 33 nM.

As for `CC(=O)Nc1cccc(C2CCN(CCCn3c(-c4cccnc4)nc4ccccc43)CC2)c1` [Example 105, 2-(pyridin-3-yl)-1-{3-[4-(3-acetamidophenyl)piperidin-1-yl]propyl}-1H-benzimidazole], the IC50 under setting [1] came out at 60 nM.

For `CC(=O)Nc1cccc(C2CCN(CCCn3c(-c4ccncc4)nc4ccccc43)CC2)c1` [Example 106, 2-(pyridin-4-yl)-1-{3-[4-(3-acetamidophenyl)piperidin-1-yl]propyl}-1H-benzimidazole], the 50% inhibitory concentration (IC50) under setting [1] turned out to be 150 nM.

Take `CC(=O)Nc1cccc(C2CCN(CCCn3c(-c4ccoc4)nc4ccccc43)CC2)c1` [Example 107, 2-(furan-3-yl)-1-{3-[4-(3-acetylaminophenyl)piperidin-1-yl]propyl}-1H-benzimidazole]: the IC50 under setting [1] stood at 25 nM.

As for `CC(=O)Nc1cccc(C2CCN(CCCn3c(-c4ccc(Br)o4)nc4ccccc43)CC2)c1` [Example 108, 2-(5-bromofuran-2-yl)-1-{3-[4-(3-acetylaminophenyl)piperidin-1-yl]propyl}-1H-benzimidazole], under setting [1], the IC50 came to 3 nM.

Consider `CC(=O)Nc1cccc(C2CCN(CCCn3c(-c4cccs4)nc4ccccc43)CC2)c1` [Example 109, 2-(thiophen-2-yl)-1-{3-[4-(3-acetylaminophenyl)piperidin-1-yl]propyl}-1H-benzimidazole], for which the IC50 under setting [1] stood at 15 nM.

Turning to `CC(=O)Nc1cccc(C2CCN(CCCn3c(-c4ccc(C)s4)nc4ccccc43)CC2)c1` [Example 110, 2-(5-methylthiophen-2-yl)-1-{3-[4-(3-acetylaminophenyl)piperidin-1-yl]propyl}-1H-benzimidazole], under setting [1], the IC50 amounted to 14 nM.

As for `CC(=O)Nc1cccc(C2CCN(CCCn3c(-c4cccn4C)nc4ccccc43)CC2)c1` [Example 111, 2-(1-methylpyrrol-2-yl)-1-{3-[4-(3-acetylaminophenyl)piperidin-1-yl]propyl}-1H-benzimidazole], the IC50 under setting [1] amounted to 9 nM.

On to `CC(=O)Nc1cccc(C2CCN(CCCn3c(-c4cncc(Br)c4)nc4ccccc43)CC2)c1` [Example 112, 2-(5-bromopyridin-3-yl)-1-{3-[4-(3-acetylaminophenyl)piperidin-1-yl]propyl}-1H-benzimidazole], for which the IC50 under setting [1] came out at 5 nM.

As to `CC(=O)Nc1cccc(C2CCN(CCCn3c(-c4ccc(Cl)nc4)nc4ccccc43)CC2)c1` [Example 113, 2-(6-chloropyridin-3-yl)-1-{3-[4-(3-acetamidophenyl)piperidin-1-yl]propyl}-1H-benzimidazole], the IC50 under setting [1] worked out at 1 nM.

As for `CC(=O)Nc1cccc(C2CCN(CCCn3c(-c4ccc(C)nc4)nc4ccccc43)CC2)c1` [Example 114, 2-(6-methylpyridin-3-yl)-1-{3-[4-(3-acetamidophenyl)piperidin-1-yl]propyl}-1H-benzimidazole], under setting [1], the IC50 came out at 42 nM.

For the molecule `COc1ncccc1-c1nc2ccccc2n1CCCN1CCC(c2cccc(NC(C)=O)c2)CC1` [Example 115, 2-(2-methoxypyridin-3-yl)-1-{3-[4-(3-acetamidophenyl)piperidin-1-yl]propyl}-1H-benzimidazole], the IC50 under setting [1] turned out to be 67 nM.

For `CC(=O)Nc1cccc(C2CCN(CCCn3c(-c4cccnc4)nc4cc(Cl)ccc43)CC2)c1` [Example 116, 5-chloro-2-(pyridin-3-yl)-1-{3-[4-(3-acetamidophenyl)piperidin-1-yl]propyl}-1H-benzimidazole], the IC50 under setting [1] came out at 48 nM.

Usually IC50 stands for the concentration at which inhibition is half-maximal.
